Assay results from article PMC12475274, “Harnessing indole scaffolds to identify small-molecule IRE1α inhibitors modulating XBP1 mRNA splicing” (Nature Communications, 2025).

Tests used:
Assay in all cases: Kinase profiling (SelectScreen), ZLYTE
Type in all cases: biochemical
LCK = LCK (Homo sapiens, UniProt P06239)
Description: (§1) Kinase profiling was conducted by the SelectScreen Kinase Profiling Services (Thermo Fisher), using Z′-LYTE, Adapta, or LanthaScreen Eu Kinase Binding Assay for different kinases. The kinome phylogenetic tree was generated using the KinMap web portal.

CSNK1G2 (CK1 gamma 2) = CSNK1G2 (CK1 gamma 2) (Homo sapiens, UniProt P78368)
Description: as §1

PAK4 = PAK4 (Homo sapiens, UniProt O96013)
Description: as §1

IGF1R = IGF1R (Homo sapiens, UniProt P08069)
Description: as §1

PRKCB1 (PKC beta I) = PRKCB1 (PKC beta I) (Homo sapiens, UniProt P05771)
Description: as §1

AURKA (Aurora A) = AURKA (Aurora A) (Homo sapiens, UniProt O14965)
Description: as §1

BTK = BTK (Homo sapiens, UniProt Q06187)
Description: as §1

FLT3 = FLT3 (Homo sapiens, UniProt P36888)
Description: as §1

JAK3 = JAK3 (Homo sapiens, UniProt P52333)
Description: as §1

MAPK1 (ERK2) = MAPK1 (ERK2) (Homo sapiens, UniProt P28482)
Description: as §1

AMPK A1/B1/G1 = AMPK A1/B1/G1 (Homo sapiens, UniProt Q13131)
Description: as §1

DAPK3 (ZIPK) = DAPK3 (ZIPK) (Homo sapiens, UniProt O43293)
Description: as §1

NTRK2 (TRKB) = NTRK2 (TRKB) (Homo sapiens, UniProt Q16620)
Description: as §1

ABL1 = ABL1 (Homo sapiens, UniProt P00519)
Description: as §1

SRC = SRC (Homo sapiens, UniProt P12931)
Description: as §1

MAPK14 (p38 alpha) = MAPK14 (p38 alpha) (Homo sapiens, UniProt Q16539); conditions: IA107 at 5 μM; ATP 100 μM
Description: as §1

CDK1/cyclin B = CDK1/cyclin B (Homo sapiens, UniProt P06493)
Description: as §1

AKT1 (PKB alpha) = AKT1 (PKB alpha) (Homo sapiens, UniProt P31749)
Description: as §1

SGKL (SGK3) = SGKL (SGK3) (Homo sapiens, UniProt Q96BR1)
Description: as §1

CHEK1 (CHK1) = CHEK1 (CHK1) (Homo sapiens, UniProt O14757)
Description: as §1

PRKACA (PKA) = PRKACA (PKA) (Homo sapiens, UniProt P17612)
Description: as §1

KIT = KIT (Homo sapiens, UniProt P10721)
Description: as §1

PDGFRB (PDGFR beta) = PDGFRB (PDGFR beta) (Homo sapiens, UniProt P09619)
Description: as §1

PHKG2 = PHKG2 (Homo sapiens, UniProt P15735)
Description: as §1

MAP2K6 (MKK6) = MAP2K6 (MKK6) (Homo sapiens, UniProt P52564); conditions: IA107 at 5 μM; ATP 100 μM
Description: as §1

MAPKAPK2 = MAPKAPK2 (Homo sapiens, UniProt P49137)
Description: as §1

TEK (Tie2) = TEK (Tie2) (Homo sapiens, UniProt Q02763)
Description: as §1

DYRK1A = DYRK1A (Homo sapiens, UniProt Q13627)
Description: as §1

FRAP1 (mTOR) = FRAP1 (mTOR) (Homo sapiens, UniProt P42345)
Description: as §1

CLK2 = CLK2 (Homo sapiens, UniProt P49760)
Description: as §1

FGFR1 = FGFR1 (Homo sapiens, UniProt P11362)
Description: as §1

MAPK8 (JNK1) = MAPK8 (JNK1) (Homo sapiens, UniProt P45983); conditions: IA107 at 5 μM; ATP 100 μM
Description: as §1

DYRK3 = DYRK3 (Homo sapiens, UniProt O43781)
Description: as §1

IKBKB (IKK beta) = IKBKB (IKK beta) (Homo sapiens, UniProt O14920)
Description: as §1

STK4 (MST1) = STK4 (MST1) (Homo sapiens, UniProt Q13043)
Description: as §1

CSNK2A1 (CK2 alpha 1) = CSNK2A1 (CK2 alpha 1) (Homo sapiens, UniProt P68400)
Description: as §1

Chain of PAK4 (O96013 whole entry): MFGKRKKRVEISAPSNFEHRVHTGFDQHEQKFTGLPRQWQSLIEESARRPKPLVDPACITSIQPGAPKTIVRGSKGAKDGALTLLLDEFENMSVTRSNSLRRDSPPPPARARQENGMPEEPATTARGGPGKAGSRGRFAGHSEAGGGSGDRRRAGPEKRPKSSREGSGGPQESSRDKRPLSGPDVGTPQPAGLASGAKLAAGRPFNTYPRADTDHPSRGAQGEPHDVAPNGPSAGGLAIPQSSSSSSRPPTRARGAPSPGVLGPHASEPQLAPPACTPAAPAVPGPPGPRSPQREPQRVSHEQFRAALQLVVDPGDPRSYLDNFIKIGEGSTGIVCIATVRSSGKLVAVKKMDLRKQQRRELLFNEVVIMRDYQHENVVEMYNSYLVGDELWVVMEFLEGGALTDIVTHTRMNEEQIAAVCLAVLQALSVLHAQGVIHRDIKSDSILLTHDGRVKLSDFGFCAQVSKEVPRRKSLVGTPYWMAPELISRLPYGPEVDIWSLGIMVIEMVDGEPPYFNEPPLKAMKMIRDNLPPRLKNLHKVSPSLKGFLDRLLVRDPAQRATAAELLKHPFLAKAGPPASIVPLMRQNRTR
Chain of FGFR1 (P11362 22-822): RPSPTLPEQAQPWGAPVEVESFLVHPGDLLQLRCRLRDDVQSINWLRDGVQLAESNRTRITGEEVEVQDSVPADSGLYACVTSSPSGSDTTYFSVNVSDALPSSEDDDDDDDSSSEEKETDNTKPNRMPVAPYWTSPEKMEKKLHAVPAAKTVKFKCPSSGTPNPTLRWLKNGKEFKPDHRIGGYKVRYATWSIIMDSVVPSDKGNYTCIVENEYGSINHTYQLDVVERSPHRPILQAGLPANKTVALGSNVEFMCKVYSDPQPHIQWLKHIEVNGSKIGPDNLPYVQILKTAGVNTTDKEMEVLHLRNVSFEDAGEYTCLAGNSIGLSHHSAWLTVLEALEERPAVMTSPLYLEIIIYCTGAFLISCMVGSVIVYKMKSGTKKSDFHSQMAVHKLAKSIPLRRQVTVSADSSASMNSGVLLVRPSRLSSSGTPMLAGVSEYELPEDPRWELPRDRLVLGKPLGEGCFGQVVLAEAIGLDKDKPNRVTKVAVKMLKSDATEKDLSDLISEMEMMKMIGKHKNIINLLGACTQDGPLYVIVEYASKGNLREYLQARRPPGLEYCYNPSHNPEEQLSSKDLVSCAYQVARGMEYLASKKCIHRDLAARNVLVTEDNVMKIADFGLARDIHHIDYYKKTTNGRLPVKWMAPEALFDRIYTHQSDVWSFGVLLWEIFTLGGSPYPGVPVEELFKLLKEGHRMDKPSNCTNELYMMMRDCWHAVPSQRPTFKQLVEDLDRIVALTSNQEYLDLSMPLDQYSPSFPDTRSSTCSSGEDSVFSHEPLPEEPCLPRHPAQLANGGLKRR
Chain of PHKG2 (P15735 whole entry): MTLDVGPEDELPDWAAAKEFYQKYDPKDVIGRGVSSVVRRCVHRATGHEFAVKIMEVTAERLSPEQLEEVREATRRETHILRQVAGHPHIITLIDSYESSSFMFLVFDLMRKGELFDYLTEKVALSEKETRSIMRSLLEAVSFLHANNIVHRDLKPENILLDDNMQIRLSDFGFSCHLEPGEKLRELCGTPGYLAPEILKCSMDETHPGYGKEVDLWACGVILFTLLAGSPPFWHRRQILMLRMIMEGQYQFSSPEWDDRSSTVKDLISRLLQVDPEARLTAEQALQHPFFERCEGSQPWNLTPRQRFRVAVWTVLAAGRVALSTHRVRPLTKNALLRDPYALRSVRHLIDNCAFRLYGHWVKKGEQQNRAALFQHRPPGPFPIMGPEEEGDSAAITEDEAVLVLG
Chain of PDGFRB (PDGFR beta) (P09619 33-1106): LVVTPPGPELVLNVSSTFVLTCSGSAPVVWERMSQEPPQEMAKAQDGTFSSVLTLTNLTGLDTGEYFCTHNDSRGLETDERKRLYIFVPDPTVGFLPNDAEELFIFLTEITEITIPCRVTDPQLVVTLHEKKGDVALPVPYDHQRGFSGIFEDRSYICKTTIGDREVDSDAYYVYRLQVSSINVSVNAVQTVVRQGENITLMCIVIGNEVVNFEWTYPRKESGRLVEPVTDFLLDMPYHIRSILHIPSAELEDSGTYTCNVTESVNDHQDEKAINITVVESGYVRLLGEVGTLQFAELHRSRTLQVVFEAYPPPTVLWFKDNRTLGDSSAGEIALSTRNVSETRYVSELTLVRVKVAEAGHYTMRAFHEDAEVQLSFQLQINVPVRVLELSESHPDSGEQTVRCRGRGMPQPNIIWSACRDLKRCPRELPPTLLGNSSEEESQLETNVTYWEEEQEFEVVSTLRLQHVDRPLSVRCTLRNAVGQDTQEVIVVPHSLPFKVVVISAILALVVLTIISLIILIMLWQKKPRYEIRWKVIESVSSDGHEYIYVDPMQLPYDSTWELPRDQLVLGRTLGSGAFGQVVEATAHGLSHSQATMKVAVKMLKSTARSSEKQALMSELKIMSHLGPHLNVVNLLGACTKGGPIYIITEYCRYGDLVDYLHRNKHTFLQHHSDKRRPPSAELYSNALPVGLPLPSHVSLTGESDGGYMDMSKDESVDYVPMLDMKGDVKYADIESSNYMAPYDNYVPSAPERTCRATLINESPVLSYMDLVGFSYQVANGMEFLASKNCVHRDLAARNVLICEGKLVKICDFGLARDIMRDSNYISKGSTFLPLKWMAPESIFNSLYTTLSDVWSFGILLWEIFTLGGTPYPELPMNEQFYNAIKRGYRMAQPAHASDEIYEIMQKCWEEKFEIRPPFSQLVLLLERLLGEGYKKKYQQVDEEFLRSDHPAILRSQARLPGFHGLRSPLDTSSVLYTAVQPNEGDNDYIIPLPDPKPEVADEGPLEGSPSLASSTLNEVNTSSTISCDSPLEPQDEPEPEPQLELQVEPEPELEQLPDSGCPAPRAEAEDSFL
Chain of BTK (Q06187 whole entry): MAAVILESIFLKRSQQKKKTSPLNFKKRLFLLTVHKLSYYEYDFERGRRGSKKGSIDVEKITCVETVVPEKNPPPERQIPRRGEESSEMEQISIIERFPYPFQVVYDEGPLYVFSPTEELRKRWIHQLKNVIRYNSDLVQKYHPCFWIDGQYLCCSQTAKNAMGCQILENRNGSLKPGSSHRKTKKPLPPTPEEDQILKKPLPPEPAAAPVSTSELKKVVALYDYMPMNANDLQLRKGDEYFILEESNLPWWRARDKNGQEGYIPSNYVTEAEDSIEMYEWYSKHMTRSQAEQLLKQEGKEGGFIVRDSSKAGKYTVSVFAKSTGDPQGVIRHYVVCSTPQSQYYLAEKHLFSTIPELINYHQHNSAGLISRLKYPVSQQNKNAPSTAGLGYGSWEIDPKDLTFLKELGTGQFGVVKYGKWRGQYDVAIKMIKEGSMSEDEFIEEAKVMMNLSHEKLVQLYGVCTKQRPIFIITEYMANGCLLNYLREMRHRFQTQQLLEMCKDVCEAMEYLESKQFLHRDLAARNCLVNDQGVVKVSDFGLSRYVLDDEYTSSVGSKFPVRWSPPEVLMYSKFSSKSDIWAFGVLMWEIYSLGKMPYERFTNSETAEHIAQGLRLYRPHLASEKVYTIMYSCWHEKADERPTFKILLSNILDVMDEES
Chain of CSNK1G2 (CK1 gamma 2) (P78368 whole entry): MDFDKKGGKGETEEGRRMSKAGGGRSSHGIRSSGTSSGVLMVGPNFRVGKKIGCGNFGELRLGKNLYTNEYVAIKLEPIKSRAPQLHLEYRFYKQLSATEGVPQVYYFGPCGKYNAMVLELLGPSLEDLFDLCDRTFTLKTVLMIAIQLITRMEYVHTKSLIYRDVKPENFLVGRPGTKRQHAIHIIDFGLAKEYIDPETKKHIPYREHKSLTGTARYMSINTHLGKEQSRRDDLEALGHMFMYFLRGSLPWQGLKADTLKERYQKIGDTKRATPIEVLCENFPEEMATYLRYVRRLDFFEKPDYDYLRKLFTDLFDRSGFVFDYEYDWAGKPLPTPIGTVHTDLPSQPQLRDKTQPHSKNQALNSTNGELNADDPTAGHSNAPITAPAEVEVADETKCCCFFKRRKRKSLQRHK
Chain of MAPK1 (ERK2) (P28482 whole entry): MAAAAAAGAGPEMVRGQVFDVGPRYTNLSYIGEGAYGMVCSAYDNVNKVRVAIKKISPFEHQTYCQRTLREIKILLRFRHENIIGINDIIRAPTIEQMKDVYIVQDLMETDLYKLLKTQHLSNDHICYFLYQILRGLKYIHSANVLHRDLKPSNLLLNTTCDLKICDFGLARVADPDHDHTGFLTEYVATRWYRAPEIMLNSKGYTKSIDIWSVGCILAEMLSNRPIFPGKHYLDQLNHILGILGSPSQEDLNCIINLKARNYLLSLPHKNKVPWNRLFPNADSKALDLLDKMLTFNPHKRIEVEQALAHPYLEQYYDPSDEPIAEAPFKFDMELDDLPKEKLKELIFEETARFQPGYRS
Chain of CLK2 (P49760 whole entry): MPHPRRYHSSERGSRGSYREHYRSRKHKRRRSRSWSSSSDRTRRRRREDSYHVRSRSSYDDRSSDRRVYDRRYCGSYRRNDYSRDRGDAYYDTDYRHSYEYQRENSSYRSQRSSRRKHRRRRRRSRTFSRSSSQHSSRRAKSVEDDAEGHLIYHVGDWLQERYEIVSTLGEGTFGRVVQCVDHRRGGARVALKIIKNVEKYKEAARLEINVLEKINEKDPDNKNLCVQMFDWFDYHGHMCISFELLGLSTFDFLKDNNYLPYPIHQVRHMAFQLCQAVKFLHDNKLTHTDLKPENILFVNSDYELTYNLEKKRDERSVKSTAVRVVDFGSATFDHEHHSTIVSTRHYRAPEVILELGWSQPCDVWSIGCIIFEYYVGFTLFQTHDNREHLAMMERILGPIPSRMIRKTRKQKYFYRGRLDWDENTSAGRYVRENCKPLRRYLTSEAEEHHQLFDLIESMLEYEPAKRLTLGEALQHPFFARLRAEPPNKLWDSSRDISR

With `Cc1c(CCC(=O)O)c2cc(Br)ccc2n1C(=O)c1ccccc1` [IA107] the inhibition at 5 µM (LCK) was 8%, the inhibition at 5 µM (CSNK1G2 (CK1 gamma 2)) was 6% and the inhibition at 5 µM (PAK4) was -3%. It also gave an inhibition at 5 µM (IGF1R) of 3%, an inhibition at 5 µM (PRKCB1 (PKC beta I)) of 7% and an inhibition at 5 µM (AURKA (Aurora A)) of 5%. For the same compound, the inhibition at 5 µM (BTK) was 8%, the inhibition at 5 µM (FLT3) was 6% and the inhibition at 5 µM (JAK3) was 0%. The inhibition at 5 µM (MAPK1 (ERK2)) was 2%, the inhibition at 5 µM (AMPK A1/B1/G1) was 9% and the inhibition at 5 µM (DAPK3 (ZIPK)) was 1%. The inhibition at 5 µM (NTRK2 (TRKB)) was 5%, the inhibition at 5 µM (ABL1) was 3% and the inhibition at 5 µM (SRC) was 4%. It also gave an inhibition at 5 µM (MAPK14 (p38 alpha)) of 6%, an inhibition at 5 µM (CDK1/cyclin B) of 4% and an inhibition at 5 µM (AKT1 (PKB alpha)) of 0%. The inhibition at 5 µM (SGKL (SGK3)) was 1%, the inhibition at 5 µM (CHEK1 (CHK1)) was 10% and the inhibition at 5 µM (PRKACA (PKA)) was 9%. It also gave an inhibition at 5 µM (KIT) of 0%, an inhibition at 5 µM (PDGFRB (PDGFR beta)) of 0% and an inhibition at 5 µM (PHKG2) of 26%. The inhibition at 5 µM (MAP2K6 (MKK6)) was 2%, the inhibition at 5 µM (MAPKAPK2) was 5% and the inhibition at 5 µM (TEK (Tie2)) was 6%. The inhibition at 5 µM (DYRK1A) was 4%, the inhibition at 5 µM (FRAP1 (mTOR)) was 5% and the inhibition at 5 µM (CLK2) was 7%. The inhibition at 5 µM (FGFR1) was 4%, the inhibition at 5 µM (MAPK8 (JNK1)) was -8% and the inhibition at 5 µM (DYRK3) was 2%. The inhibition at 5 µM (IKBKB (IKK beta)) was 4%, the inhibition at 5 µM (STK4 (MST1)) was 0% and the inhibition at 5 µM (CSNK2A1 (CK2 alpha 1)) was 6%.
